Tests used:
Assay in all cases: biochemical
Set-up in all cases: KINOMEscan competition binding panel (Eurofins DiscoverX), single concentration, % inhibition
Conditions in all cases: read-out: 7 at 1 µM % inhibition
[1] = target: T1, PYK2 (Homo sapiens, UniProt Q14289)
T1 construct: gene PTK2B
Method in brief: (§1)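 KINOMEscan selectivity screen; >400 human kinases; compound at 1 µM, single concentration.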

[2] = target: STK35 (Homo sapiens, UniProt Q8TDR2)
Method in brief: as §1

[3] = target: MAPKAPK5 (Homo sapiens, UniProt Q8IW41)
Method in brief: as §1

[4] = target: EPHA4 (Homo sapiens, UniProt P54764)
Method in brief: as §1

[5] = target: SRC (Homo sapiens, UniProt P12931)
Method in brief: as §1

[6] = target: LRRK2 (Homo sapiens, UniProt Q5S007)
Method in brief: as §1

[7] = target: CAMK4 (Homo sapiens, UniProt Q16566)
Method in brief: as §1

[8] = target: BLK (Homo sapiens, UniProt P51451)
Method in brief: as §1

[9] = target: T2, RSK2(Kin.Dom.2-C-terminal) (Homo sapiens, UniProt P51812)
T2 construct: gene RPS6KA3; Kin.Dom.2-C-terminal
Method in brief: as §1

[10] = target: EPHA3 (Homo sapiens, UniProt P29320)
Method in brief: as §1

[11] = target: EGFR(L861Q) (Homo sapiens, UniProt P00533, L861Q)
Method in brief: as §1

[12] = target: CAMK1G (Homo sapiens, UniProt Q96NX5)
Method in brief: as §1

[13] = target: EGFR(G719S) (Homo sapiens, UniProt P00533, G719S)
Method in brief: as §1

[14] = target: CDKL3 (Homo sapiens, UniProt Q8IVW4)
Method in brief: as §1

[15] = target: ERBB4 (Homo sapiens, UniProt Q15303)
Method in brief: as §1

[16] = target: FLT3 (Homo sapiens, UniProt P36888)
Method in brief: as §1

[17] = target: PIK3CA(I800L) (Homo sapiens, UniProt P42336, I800L)
Method in brief: as §1

[18] = target: HIPK4 (Homo sapiens, UniProt Q8NE63)
Method in brief: as §1

[19] = target: FLT1 (Homo sapiens, UniProt P17948)
Method in brief: as §1

[20] = target: PKN1 (Homo sapiens, UniProt Q16512)
Method in brief: as §1

[21] = target: T3, CTK (Homo sapiens, UniProt P42679)
T3 construct: gene MATK
Method in brief: as §1

[22] = target: HIPK1 (Homo sapiens, UniProt Q86Z02)
Method in brief: as §1

[23] = target: PRKD3 (Homo sapiens, UniProt O94806)
Method in brief: as §1

[24] = target: FLT3(ITD,F691L) (Homo sapiens, UniProt P36888, F691L/ITD)
Method in brief: as §1

Sequence of CAMK4 (Q16566 whole entry): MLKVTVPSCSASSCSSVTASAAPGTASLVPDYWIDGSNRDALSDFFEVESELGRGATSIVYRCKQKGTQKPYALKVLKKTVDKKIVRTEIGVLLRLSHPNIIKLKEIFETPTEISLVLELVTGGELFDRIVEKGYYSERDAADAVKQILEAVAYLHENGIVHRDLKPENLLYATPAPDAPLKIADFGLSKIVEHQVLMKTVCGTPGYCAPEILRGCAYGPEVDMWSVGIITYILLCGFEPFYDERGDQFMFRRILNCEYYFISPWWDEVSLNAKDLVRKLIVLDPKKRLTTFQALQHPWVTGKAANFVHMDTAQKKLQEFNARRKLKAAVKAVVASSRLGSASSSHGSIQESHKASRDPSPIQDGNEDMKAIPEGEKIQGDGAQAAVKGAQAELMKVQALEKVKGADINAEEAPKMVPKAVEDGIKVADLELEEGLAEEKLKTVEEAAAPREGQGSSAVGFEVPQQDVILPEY
T3 sequence (P42679 whole entry): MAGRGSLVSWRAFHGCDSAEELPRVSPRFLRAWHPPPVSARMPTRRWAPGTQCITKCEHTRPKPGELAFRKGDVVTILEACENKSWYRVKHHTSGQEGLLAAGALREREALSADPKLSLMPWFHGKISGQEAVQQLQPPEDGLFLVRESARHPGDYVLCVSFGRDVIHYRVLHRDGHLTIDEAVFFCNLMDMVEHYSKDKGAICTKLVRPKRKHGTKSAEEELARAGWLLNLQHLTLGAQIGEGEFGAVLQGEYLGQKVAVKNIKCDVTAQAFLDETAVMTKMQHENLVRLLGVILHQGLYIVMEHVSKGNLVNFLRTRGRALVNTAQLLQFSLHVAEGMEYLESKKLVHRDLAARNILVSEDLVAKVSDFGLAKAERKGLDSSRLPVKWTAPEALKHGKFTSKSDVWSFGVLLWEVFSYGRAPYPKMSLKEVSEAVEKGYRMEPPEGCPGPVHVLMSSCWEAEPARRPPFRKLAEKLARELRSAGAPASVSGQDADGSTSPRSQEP
Sequence of FLT1 (P17948 whole entry): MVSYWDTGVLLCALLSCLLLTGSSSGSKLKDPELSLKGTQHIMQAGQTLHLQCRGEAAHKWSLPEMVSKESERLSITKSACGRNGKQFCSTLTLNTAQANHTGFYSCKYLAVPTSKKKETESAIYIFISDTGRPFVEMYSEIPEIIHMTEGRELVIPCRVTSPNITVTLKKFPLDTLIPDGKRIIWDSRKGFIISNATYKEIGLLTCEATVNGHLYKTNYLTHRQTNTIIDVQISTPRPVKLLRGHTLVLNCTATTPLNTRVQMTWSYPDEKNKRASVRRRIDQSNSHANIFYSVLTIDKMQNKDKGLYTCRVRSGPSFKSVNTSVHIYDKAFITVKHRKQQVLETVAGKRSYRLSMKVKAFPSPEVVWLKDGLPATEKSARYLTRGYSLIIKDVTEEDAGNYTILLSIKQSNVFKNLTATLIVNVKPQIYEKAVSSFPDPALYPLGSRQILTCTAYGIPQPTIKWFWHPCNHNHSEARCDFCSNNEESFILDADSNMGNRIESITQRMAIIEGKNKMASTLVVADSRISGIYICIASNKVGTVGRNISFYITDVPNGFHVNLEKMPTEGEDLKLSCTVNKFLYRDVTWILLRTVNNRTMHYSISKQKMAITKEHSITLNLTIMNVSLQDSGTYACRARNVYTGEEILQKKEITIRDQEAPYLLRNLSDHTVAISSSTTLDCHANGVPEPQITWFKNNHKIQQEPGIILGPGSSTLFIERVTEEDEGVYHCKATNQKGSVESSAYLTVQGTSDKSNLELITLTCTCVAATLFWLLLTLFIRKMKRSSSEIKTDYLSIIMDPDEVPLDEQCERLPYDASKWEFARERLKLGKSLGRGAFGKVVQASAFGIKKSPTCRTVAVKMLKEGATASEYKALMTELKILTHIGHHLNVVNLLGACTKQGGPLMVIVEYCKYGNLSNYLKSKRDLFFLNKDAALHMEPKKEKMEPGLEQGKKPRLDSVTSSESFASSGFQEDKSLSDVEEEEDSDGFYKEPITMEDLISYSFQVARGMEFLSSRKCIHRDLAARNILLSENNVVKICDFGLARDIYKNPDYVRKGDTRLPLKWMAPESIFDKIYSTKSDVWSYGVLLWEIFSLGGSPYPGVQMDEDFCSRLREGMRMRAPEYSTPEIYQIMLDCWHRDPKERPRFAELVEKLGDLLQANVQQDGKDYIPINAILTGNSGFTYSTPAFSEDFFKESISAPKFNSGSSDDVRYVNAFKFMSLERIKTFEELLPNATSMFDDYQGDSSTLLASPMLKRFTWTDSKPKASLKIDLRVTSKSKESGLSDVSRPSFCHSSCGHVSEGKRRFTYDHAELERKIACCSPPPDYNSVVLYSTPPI
Sequence of EPHA4 (P54764 whole entry): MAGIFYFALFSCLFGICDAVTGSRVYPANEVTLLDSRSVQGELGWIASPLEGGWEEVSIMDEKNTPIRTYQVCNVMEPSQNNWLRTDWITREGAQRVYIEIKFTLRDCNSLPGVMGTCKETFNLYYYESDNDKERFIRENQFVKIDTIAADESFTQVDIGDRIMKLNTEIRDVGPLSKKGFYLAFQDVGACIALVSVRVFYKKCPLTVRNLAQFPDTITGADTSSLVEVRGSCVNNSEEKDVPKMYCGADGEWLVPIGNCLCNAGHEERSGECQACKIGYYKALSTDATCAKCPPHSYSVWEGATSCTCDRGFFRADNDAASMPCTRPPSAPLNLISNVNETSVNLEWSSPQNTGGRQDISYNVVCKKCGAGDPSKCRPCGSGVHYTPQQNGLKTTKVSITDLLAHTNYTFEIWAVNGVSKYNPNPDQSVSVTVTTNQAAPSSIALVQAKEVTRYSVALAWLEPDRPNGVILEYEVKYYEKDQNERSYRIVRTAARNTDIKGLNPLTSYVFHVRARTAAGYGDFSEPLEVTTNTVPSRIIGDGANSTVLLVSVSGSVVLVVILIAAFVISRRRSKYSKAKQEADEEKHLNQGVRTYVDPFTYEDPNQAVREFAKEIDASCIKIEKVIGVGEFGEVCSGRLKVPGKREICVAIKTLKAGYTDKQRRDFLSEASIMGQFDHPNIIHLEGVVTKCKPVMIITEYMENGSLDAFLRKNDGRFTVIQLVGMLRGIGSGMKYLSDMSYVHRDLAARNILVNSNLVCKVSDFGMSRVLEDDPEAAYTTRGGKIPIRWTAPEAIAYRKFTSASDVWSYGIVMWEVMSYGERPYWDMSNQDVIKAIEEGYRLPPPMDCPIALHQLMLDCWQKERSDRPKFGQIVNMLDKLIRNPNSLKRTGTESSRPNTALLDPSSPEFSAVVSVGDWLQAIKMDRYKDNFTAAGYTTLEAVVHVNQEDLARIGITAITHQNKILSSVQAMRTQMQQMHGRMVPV
Sequence of STK35 (Q8TDR2 whole entry): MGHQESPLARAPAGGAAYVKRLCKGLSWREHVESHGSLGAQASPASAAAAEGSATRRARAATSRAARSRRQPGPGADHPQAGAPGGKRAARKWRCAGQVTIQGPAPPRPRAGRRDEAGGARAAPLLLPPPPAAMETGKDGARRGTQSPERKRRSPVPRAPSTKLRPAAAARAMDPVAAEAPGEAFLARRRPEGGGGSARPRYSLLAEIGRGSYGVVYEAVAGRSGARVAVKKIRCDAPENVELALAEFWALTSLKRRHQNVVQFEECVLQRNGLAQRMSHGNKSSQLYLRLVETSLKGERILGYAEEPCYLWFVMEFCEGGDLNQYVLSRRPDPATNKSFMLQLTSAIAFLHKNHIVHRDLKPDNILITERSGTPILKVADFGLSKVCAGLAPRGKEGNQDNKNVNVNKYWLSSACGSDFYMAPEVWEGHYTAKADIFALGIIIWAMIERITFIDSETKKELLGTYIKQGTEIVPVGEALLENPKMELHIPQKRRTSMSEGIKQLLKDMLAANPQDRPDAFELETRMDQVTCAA
Sequence of EPHA3 (P29320 whole entry): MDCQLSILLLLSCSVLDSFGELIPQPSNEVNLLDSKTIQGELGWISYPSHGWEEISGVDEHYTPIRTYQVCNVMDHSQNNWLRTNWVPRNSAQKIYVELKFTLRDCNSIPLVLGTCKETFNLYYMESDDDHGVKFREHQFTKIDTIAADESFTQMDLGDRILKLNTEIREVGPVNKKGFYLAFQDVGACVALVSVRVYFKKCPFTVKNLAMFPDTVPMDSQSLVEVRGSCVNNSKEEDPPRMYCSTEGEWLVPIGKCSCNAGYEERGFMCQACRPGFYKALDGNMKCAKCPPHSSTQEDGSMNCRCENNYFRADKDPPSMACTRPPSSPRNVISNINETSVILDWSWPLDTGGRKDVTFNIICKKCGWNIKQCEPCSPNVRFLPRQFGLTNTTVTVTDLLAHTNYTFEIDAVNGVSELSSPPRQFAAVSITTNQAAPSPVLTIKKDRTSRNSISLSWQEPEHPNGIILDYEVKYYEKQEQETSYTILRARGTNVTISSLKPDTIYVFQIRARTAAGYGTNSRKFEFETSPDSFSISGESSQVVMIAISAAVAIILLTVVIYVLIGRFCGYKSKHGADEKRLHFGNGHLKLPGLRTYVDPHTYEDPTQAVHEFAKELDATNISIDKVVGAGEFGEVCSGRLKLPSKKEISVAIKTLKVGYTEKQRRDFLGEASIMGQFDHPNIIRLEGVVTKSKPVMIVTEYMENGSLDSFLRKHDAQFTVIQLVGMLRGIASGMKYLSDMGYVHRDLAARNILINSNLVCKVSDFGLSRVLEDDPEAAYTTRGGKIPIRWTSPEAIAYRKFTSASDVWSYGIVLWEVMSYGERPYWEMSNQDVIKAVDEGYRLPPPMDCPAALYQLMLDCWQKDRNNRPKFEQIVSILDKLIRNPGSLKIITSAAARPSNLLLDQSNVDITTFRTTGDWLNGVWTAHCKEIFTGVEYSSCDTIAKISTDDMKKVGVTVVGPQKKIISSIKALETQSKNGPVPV

CNS(=O)(=O)c1ccc(N(C)C)c(Nc2ncnc3cc(OC)c(OC)cc23)c1 [compound 7, 3-((6,7-dimethoxyquinazolin-4-yl)amino)-4-(dimethylamino)-N-methylbenzenesulfonamide]
inhibition at 1 µM [1]: 0% | inhibition at 1 µM [2]: 0% | inhibition at 1 µM [3]: 27% | inhibition at 1 µM [4]: 0% | inhibition at 1 µM [5]: 0% | inhibition at 1 µM [6]: 9% | inhibition at 1 µM [7]: 0% | inhibition at 1 µM [8]: 29% | inhibition at 1 µM [9]: 33% | inhibition at 1 µM [10]: 5% | inhibition at 1 µM [11]: 0% | inhibition at 1 µM [12]: 0% | inhibition at 1 µM [13]: 0% | inhibition at 1 µM [14]: 0% | inhibition at 1 µM [15]: 0% | inhibition at 1 µM [16]: 7% | inhibition at 1 µM [17]: 56% | inhibition at 1 µM [18]: 13% | inhibition at 1 µM [19]: 0% | inhibition at 1 µM [20]: 0% | inhibition at 1 µM [21]: 1% | inhibition at 1 µM [22]: 5% | inhibition at 1 µM [23]: 7% | inhibition at 1 µM [24]: 22%
